This is an account of results in ChEMBL document CHEMBL4814060, “Design, synthesis and biological evaluation of novel pleuromutilin derivatives as potent anti-MRSA agents targeting the 50S ribosome” (Bioorg Med Chem, 2021).

Values after ≈ are worked out from the molar mass of the structure shown.

Holding throughout (format): functional
In assay [1] the test system is Staphylococcus aureus. Nature of the assay: Antibacterial activity against Staphylococcus aureus 144 assessed as inhibition of visible growth incubated for 24 hrs by CLSI protocol based broth microdilution method. (In general: Broth dilution looks for growth in wells or tubes with falling amounts of substance.)
For assay [2], the system named is Staphylococcus aureus. Nature of the assay: Antibacterial activity against methicillin-resistant Staphylococcus aureus ATCC 43300 assessed as inhibition of visible growth incubated for 24 hrs by CLSI protocol based broth microdilution method.
The subject of assay [3] is Staphylococcus aureus. The assay is described as follows: Antibacterial activity against Staphylococcus aureus AD3 assessed as inhibition of visible growth incubated for 24 hrs by CLSI protocol based broth microdilution method.
Assay [4] deals with Staphylococcus aureus. Nature of the assay: Antibacterial activity against Staphylococcus aureus ATCC 29213 assessed as inhibition of visible growth incubated for 24 hrs by CLSI protocol based broth microdilution method.

A word on the MIC: it is the lowest concentration found to suppress growth. For `C=C[C@]1(C)C[C@@H](OC(=O)CSc2nc(N)n(C(=O)c3ccc(F)cc3Cl)n2)[C@]2(C)[C@H](C)CC[C@]3(CCC(=O)[C@H]32)[C@@H](C)[C@@H]1O`, the minimal inhibitory concentration (MIC) in the assay on Staphylococcus aureus [1] was determined as 1 µg/mL (≈ 1.58 µM); in the assay with Staphylococcus aureus [2], 1 µg/mL (≈ 1.58 µM); in the assay with Staphylococcus aureus [3], 0.5 µg/mL (≈ 0.79 µM); in the assay with Staphylococcus aureus [4] it was 1 µg/mL (≈ 1.58 µM).

`C=C[C@]1(C)C[C@@H](OC(=O)CSc2nc(N)n(C(=O)c3c(F)c(F)c(F)c(F)c3F)n2)[C@]2(C)[C@H](C)CC[C@]3(CCC(=O)[C@H]32)[C@@H](C)[C@@H]1O`: the minimal inhibitory concentration (MIC) was found to be 2 µg/mL (≈ 2.98 µM) in the assay with Staphylococcus aureus [1], 1 µg/mL (≈ 1.49 µM) in the assay with Staphylococcus aureus [2], 1 µg/mL (≈ 1.49 µM) in the assay with Staphylococcus aureus [3] and 2 µg/mL (≈ 2.98 µM) in the assay with Staphylococcus aureus [4].

With `C=C[C@]1(C)C[C@@H](OC(=O)CSc2nc(N)n(C(=O)c3ccc(OC(F)(F)F)cc3)n2)[C@]2(C)[C@H](C)CC[C@]3(CCC(=O)[C@H]32)[C@@H](C)[C@@H]1O`, the minimum inhibitory concentration (MIC) is 2 µg/mL (≈ 3.01 µM) with Staphylococcus aureus [1], 1 µg/mL (≈ 1.5 µM) with Staphylococcus aureus [2], 1 µg/mL (≈ 1.5 µM) in the assay with Staphylococcus aureus [3] and 2 µg/mL (≈ 3.01 µM) in the assay on Staphylococcus aureus [4].

In the case of `C=C[C@]1(C)C[C@@H](OC(=O)CSc2nc(N)n(C(=O)c3cccc(OC)c3)n2)[C@]2(C)[C@H](C)CC[C@]3(CCC(=O)[C@H]32)[C@@H](C)[C@@H]1O`, the MIC in the assay on Staphylococcus aureus [1] stood at 0.5 µg/mL (≈ 0.819 µM); with Staphylococcus aureus [2], 0.25 µg/mL (≈ 0.409 µM); with Staphylococcus aureus [3], 0.5 µg/mL (≈ 0.819 µM); with Staphylococcus aureus [4] it was 0.5 µg/mL (≈ 0.819 µM).

Regarding `C=C[C@]1(C)C[C@@H](OC(=O)CSc2nc(N)n[nH]2)[C@]2(C)[C@H](C)CC[C@]3(CCC(=O)[C@H]32)[C@@H](C)[C@@H]1O`, the MIC in the assay on Staphylococcus aureus [1] worked out at 2 µg/mL (≈ 4.2 µM); in the assay with Staphylococcus aureus [2], 1 µg/mL (≈ 2.1 µM); in the assay on Staphylococcus aureus [3], 1 µg/mL (≈ 2.1 µM); with Staphylococcus aureus [4] it was 1 µg/mL (≈ 2.1 µM).

Turning to `C=C[C@]1(C)C[C@@H](OC(=O)CSc2nc(N)n(C(=O)c3cc(Cl)cc(Cl)c3)n2)[C@]2(C)[C@H](C)CC[C@]3(CCC(=O)[C@H]32)[C@@H](C)[C@@H]1O`, the minimal inhibitory concentration (MIC) in the assay on Staphylococcus aureus [1] is 1 µg/mL (≈ 1.54 µM); in the assay with Staphylococcus aureus [2] it was 1 µg/mL (≈ 1.54 µM); with Staphylococcus aureus [3], 0.5 µg/mL (≈ 0.77 µM); in the assay with Staphylococcus aureus [4], 1 µg/mL (≈ 1.54 µM).

Take `C=C[C@]1(C)C[C@@H](OC(=O)CSc2nc(N)n(C(=O)c3ccccc3OC)n2)[C@]2(C)[C@H](C)CC[C@]3(CCC(=O)[C@H]32)[C@@H](C)[C@@H]1O`: the MIC in the assay on Staphylococcus aureus [1], in the assay with Staphylococcus aureus [2], with Staphylococcus aureus [3] and with Staphylococcus aureus [4] was 1 µg/mL (≈ 1.64 µM) in each case.

On to `C=C[C@]1(C)C[C@@H](OC(=O)CSc2nc(N)n(C(=O)c3ccccc3C(F)(F)F)n2)[C@]2(C)[C@H](C)CC[C@]3(CCC(=O)[C@H]32)[C@@H](C)[C@@H]1O`, for which the MIC was determined as 4 µg/mL (≈ 6.17 µM) with Staphylococcus aureus [1], 2 µg/mL (≈ 3.08 µM) in the assay on Staphylococcus aureus [2], 4 µg/mL (≈ 6.17 µM) in the assay with Staphylococcus aureus [3] and 4 µg/mL (≈ 6.17 µM) in the assay on Staphylococcus aureus [4].

Regarding `C=C[C@]1(C)C[C@@H](OC(=O)CSc2nc(N)n(C(=O)c3c(F)cccc3Cl)n2)[C@]2(C)[C@H](C)CC[C@]3(CCC(=O)[C@H]32)[C@@H](C)[C@@H]1O`, the MIC was found to be 2 µg/mL (≈ 3.16 µM) in the assay with Staphylococcus aureus [1], 1 µg/mL (≈ 1.58 µM) in the assay with Staphylococcus aureus [2], 2 µg/mL (≈ 3.16 µM) in the assay with Staphylococcus aureus [3] and 2 µg/mL (≈ 3.16 µM) in the assay with Staphylococcus aureus [4].

Turning to `C=C[C@]1(C)C[C@@H](OC(=O)CSc2nc(N)n(C(=O)c3ccc(F)cc3)n2)[C@]2(C)[C@H](C)CC[C@]3(CCC(=O)[C@H]32)[C@@H](C)[C@@H]1O`, the MIC with Staphylococcus aureus [1] amounted to 1 µg/mL (≈ 1.67 µM); in the assay with Staphylococcus aureus [2], 0.5 µg/mL (≈ 0.835 µM); in the assay with Staphylococcus aureus [3] it was 1 µg/mL (≈ 1.67 µM); with Staphylococcus aureus [4], 1 µg/mL (≈ 1.67 µM).

On to `C=C[C@]1(C)C[C@@H](OC(=O)CSc2nc(N)n(C(=O)c3ccccc3Cl)n2)[C@]2(C)[C@H](C)CC[C@]3(CCC(=O)[C@H]32)[C@@H](C)[C@@H]1O`, for which the MIC with Staphylococcus aureus [1] came to 1 µg/mL (≈ 1.63 µM); in the assay with Staphylococcus aureus [2], 0.5 µg/mL (≈ 0.813 µM); in the assay with Staphylococcus aureus [3], 0.5 µg/mL (≈ 0.813 µM); in the assay with Staphylococcus aureus [4], 0.5 µg/mL (≈ 0.813 µM).

For `C=C[C@]1(C)C[C@@H](OC(=O)CSc2nc(N)n(C(=O)c3ccc(C(F)(F)F)cc3)n2)[C@]2(C)[C@H](C)CC[C@]3(CCC(=O)[C@H]32)[C@@H](C)[C@@H]1O`, the MIC in the assay with Staphylococcus aureus [1], in the assay with Staphylococcus aureus [2], in the assay on Staphylococcus aureus [3] and in the assay on Staphylococcus aureus [4] was 1 µg/mL (≈ 1.54 µM) throughout.
